How the values were obtained:
wildtype (N2) C. elegans = test: Lifespan assay, wildtype worms; type: in vivo
Protocol: Lifespan assays were performed as described previously. (McColl, G. et al. Pharmacogenetic analysis of lithium-induced delayed aging in Caenorhabditis elegans. J Biol Chem 283, 350-357 (2008). Briefly, the nematode growth media (NGM) plates were prepared under sterile conditions. 100 μL of concentrated stocks of each of the compounds used in this study were added onto a previously prepared NGM small plate (3 mL volume) immediately spread over the surface of the plate. The final concentrations quoted in the text assume an even distribution of compound throughout the 3 ml plate. The plates were then placed in a laminar flow hood at room temperature for 30 min and then 60 μL of a concentrated suspension of E. coli OP50 was spotted to form a circular lawn on the center of each plate. […] The first day of adulthood is Day 3 in survival curves. There was between-experiment variation in the magnitude of the lifespan extension observed with ThT which appeared to correlate with different suppliers and batches. ThT concentration should be optimized depending on batch and purity and stability of the compound. […] The optimal range for lifespan extension was between 25 and 75 μM.
Animals were scored as alive, dead or lost every other day. […] Animals that died from causes other than ageing, such as sticking to the plate walls, internal hatching of eggs (“bagging”) or gonadal extrusion were censored as were lost worms. Animals were transferred to fresh plates every 3-6 days. All lifespan experiments were performed at 20° C. unless otherwise stated. Survival curves were plotted and statistical analyses (log-rank test) were performed using the Prism 4 software (Graphpad™ Software, Inc., San Diego, Calif., USA).

wildtype (N2) worms = test: Pharyngeal pumping rate; type: in vivo, Caenorhabditis elegans; conditions: 50 μM ThT
Protocol: FIG. 11A-B. ThT produces small changes in pharyngeal pumping in N2 worms and increases lifespan on a dietary restriction model. a) Pharyngeal pumping rates of wildtype animals raised on 50 μM ThT measured at 3 (left panel) and 6 days of treatment (right panel). Pumping rates of 15 individuals were scored and the averages of three independent experiments are shown (*p<0.01). b) 1 and 10 μM ThT increase lifespan of N2 worms raised on 1×10^9 cfu/ml at 20° C. as compared to untreated worms (left panel). Percent gain in median survival of N2 populations cultured on 0-50 μM ThT (right panel). Bars are representative of 2 to 4 independent experiments per duplicate.

TJ1052 [age-1(hx546)II] = test: Lifespan assay, age-1 mutant; type: in vivo, Caenorhabditis elegans; conditions: 50 μM ThT, 25° C.
Protocol: Lifespan assays were performed as described previously. (McColl, G. et al. Pharmacogenetic analysis of lithium-induced delayed aging in Caenorhabditis elegans. J Biol Chem 283, 350-357 (2008). Briefly, the nematode growth media (NGM) plates were prepared under sterile conditions. 100 μL of concentrated stocks of each of the compounds used in this study were added onto a previously prepared NGM small plate (3 mL volume) immediately spread over the surface of the plate. The final concentrations quoted in the text assume an even distribution of compound throughout the 3 ml plate. The plates were then placed in a laminar flow hood at room temperature for 30 min and then 60 μL of a concentrated suspension of E. coli OP50 was spotted to form a circular lawn on the center of each plate. Thirty late L4 larvae growing at 20° C. were transferred to fresh NGM plates with FUdR (75 μM) in presence or absence of the specified compounds and incubated at 20° C. The first day of adulthood is Day 3 in survival curves. There was between-experiment variation in the magnitude of the lifespan extension observed with ThT which appeared to correlate with different suppliers and batches. ThT concentration should be optimized depending on batch and purity and stability of the compound. […]
Animals were scored as alive, dead or lost every other day. […]

[1] = tested on: AM140 (rmIs132[P(unc-54) Q35::YFP]); test: Worm paralysis assay, polyQ model; type: in vivo, Caenorhabditis elegans; conditions: AM140, 25° C., 8 days; 50 μM ThT, 100 μM curcumin
PS3551 [hsf-1(sy441)I] = test: Lifespan assay, hsf-1 mutant; type: in vivo, Caenorhabditis elegans; conditions: 50 μM ThT, 100 μM curcumin
Protocol: Lifespan assays were performed as described previously. (McColl, G. et al. Pharmacogenetic analysis of lithium-induced delayed aging in Caenorhabditis elegans. J Biol Chem 283, 350-357 (2008). Briefly, the nematode growth media (NGM) plates were prepared under sterile conditions. 100 μL of concentrated stocks of each of the compounds used in this study were added onto a previously prepared NGM small plate (3 mL volume) immediately spread over the surface of the plate. The final concentrations quoted in the text assume an even distribution of compound throughout the 3 ml plate. The plates were then placed in a laminar flow hood at room temperature for 30 min and then 60 μL of a concentrated suspension of E. coli OP50 was spotted to form a circular lawn on the center of each plate. Thirty late L4 larvae growing at 20° C. were transferred to fresh NGM plates with FUdR (75 μM) in presence or absence of the specified compounds and incubated at 20° C. The first day of adulthood is Day 3 in survival curves. […] ThT concentration should be optimized depending on batch and purity and stability of the compound.
Animals were scored as alive, dead or lost every other day. […] Animals that died from causes other than ageing, such as sticking to the plate walls, internal hatching of eggs (“bagging”) or gonadal extrusion were censored as were lost worms. […]

CB1157 [unc-54(e1157)I] = test: Worm paralysis assay, unc-54 ts mutant; type: in vivo, Caenorhabditis elegans; conditions: restrictive temperature 25° C.
ZZ26 unc-63(x26)I = conditions: 50 μM levamisole, after 3 days of treatment
Protocol: Scoring for paralysis was initiated 2 and 8 days after temperature upshift for CL4176 and AM140, respectively. […] For sensitivity to EtOH or levamisole resistance, CW152 gas-1 (fc21) X and ZZ26 unc-63(x26)I worms were picked into 0.4 M EtOH or 50 μM levamisole, respectively, equilibrated for 5 min, and scored for paralysis as described above. Treated and untreated worms were compared with an unpaired t-test (implemented in Prism 4, Graphpad™ Software, Inc., San Diego, Calif., USA).

[2] = absence of FUdR, 50 μM, 20° C., 4 independent experiments
[3] = sterile N2 worms, 50 or 100 μM throughout adult life

SMILES: Cc1ccc2c(c1)sc(-c1ccc(N(C)C)cc1)[n+]2C.[Cl-] [ThT, 4-(3,6-dimethyl-1,3-benzothiazol-3-ium-2-yl)-N,N-dimethylaniline chloride]
- effect on lifespan at higher doses (wildtype (N2) C. elegans; 500 μM): appears toxic and significantly shortens lifespan
- Average increase in median lifespan (wildtype (N2) C. elegans; [2]): 40%
- increase in median lifespan, range over experiments (wildtype (N2) C. elegans; [2]): 30-70%
- increase in maximal lifespan (wildtype (N2) C. elegans; [3]): 43-78%
- increase in median lifespan (wildtype (N2) C. elegans; [3]): 60%
- decrease in pharyngeal pumping rate (wildtype (N2) worms; after 3 days of treatment): ~15%
- pharyngeal pumping rate (wildtype (N2) worms; after 6 days of treatment): No difference was detected
- lifespan of age-1(hx546) mutant (TJ1052 [age-1(hx546)II]): extended the lifespan
- proportion of paralyzed worms [1]: significantly decrease the proportion of paralyzed worms
- lifespan of hsf-1(sy441) mutant (PS3551 [hsf-1(sy441)I]): does not increase lifespan
- paralysis phenotype of unc-54 mutant (CB1157 [unc-54(e1157)I]): suppressed paralysis
- levamisole resistance (ZZ26 unc-63(x26)I): increases levimisole resistance

Reference: US20110081428A1, “Use of thioflavin-like compounds to increase life span and/or health span” (priority 2009, published 2011)
